Measurements reported in the supplement of paper PMC10307832.

How the values were obtained:
Assay in all cases: relative viability (nuclei count vs DMSO), 5 days (fraction); higher = more cells survive
[1] = compound: Cc1cc([C@@H](C)Nc2ccccc2C(=O)O)c2nc(N3CCOCC3)cc(=O)n2c1 [AZD6482] + N=C(N)NC(=N)NCCc1ccccc1 [Phenformin] (partner 250 µM)
How it was run: (§1)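 One day after seeding in 1536-well plates, lung cancer cell lines were dosed by pin tool. Dosing was either single-drug or a fixed anchor-drug dose plus five library-drug doses (not always all listed) in √10 steps. After 5 days, nuclei were stained in one fix-and-stain step and counted on 4× images, and relative viability is the nuclei count of treated wells over that of vehicle wells, given as the median of duplicate plates.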

[2] = compound: Cc1cc([C@@H](C)Nc2ccccc2C(=O)O)c2nc(N3CCOCC3)cc(=O)n2c1 [AZD6482] + O=C(CCCCCCC(=O)Nc1ccccc1)NO [Vorinostat] (partner 1 µM)
How it was run: as §1

[3] = compound: Cc1cc([C@@H](C)Nc2ccccc2C(=O)O)c2nc(N3CCOCC3)cc(=O)n2c1 [AZD6482] + Nc1ncn([C@H]2C[C@H](O)[C@@H](CO)O2)c(=O)n1 [Decitabine] (partner 2 µM)
How it was run: as §1

[4] = compound: COc1cc2nc(N3CCCN(C)CC3)nc(NC3CCN(Cc4ccccc4)CC3)c2cc1OC + CC(=O)c1c(C)c2cnc(Nc3ccc(N4CCNCC4)cn3)nc2n(C2CCCC2)c1=O [Palbociclib] (partner 0.5 µM)
How it was run: as §1

Cell Line: UMC-11
- relative viability ([1]; first compound 0.08 µM): 0.309
- relative viability ([1]; first compound 0.253 µM): 0.292
- relative viability ([1]; first compound 0.8 µM): 0.324
- relative viability ([1]; first compound 2.53 µM): 0.293
- relative viability ([1]; first compound 8 µM): 0.255
- relative viability ([2]; first compound 0.08 µM): 0.326
- relative viability ([2]; first compound 0.253 µM): 0.347
- relative viability ([2]; first compound 0.8 µM): 0.384
- relative viability ([2]; first compound 2.53 µM): 0.341
- relative viability ([2]; first compound 8 µM): 0.331
- relative viability ([3]; first compound 0.08 µM): 0.623
- relative viability ([3]; first compound 0.253 µM): 0.584
- relative viability ([3]; first compound 0.8 µM): 0.606
- relative viability ([3]; first compound 8 µM): 0.613
- relative viability ([4]; first compound 0.2 µM): 0.374
- relative viability ([4]; first compound 0.6325 µM): 0.389
- relative viability ([4]; first compound 2 µM): 0.317
- relative viability ([4]; first compound 6.325 µM): 0.259
